Measured values as given in US20240174639A1, “PYRIDINE DERIVATIVES USEFUL AS HCN2 MODULATORS” (King's College London, priority 2021, published 2024).
Structures can show the parent of a compound that is named as a salt.

Key:
HCN2 = biological target: T1, HCN2 (Homo sapiens, UniProt Q9UL51); test: HCN2 assay using PatchXpress 7000A (Example 50A); format: cell-based; settings: for IC50: PatchXpress protocol (PX); for selective for HCN2 over HCN4: PatchXpress protocol (PX) assay
T1 sequence (Q9UL51 1-889): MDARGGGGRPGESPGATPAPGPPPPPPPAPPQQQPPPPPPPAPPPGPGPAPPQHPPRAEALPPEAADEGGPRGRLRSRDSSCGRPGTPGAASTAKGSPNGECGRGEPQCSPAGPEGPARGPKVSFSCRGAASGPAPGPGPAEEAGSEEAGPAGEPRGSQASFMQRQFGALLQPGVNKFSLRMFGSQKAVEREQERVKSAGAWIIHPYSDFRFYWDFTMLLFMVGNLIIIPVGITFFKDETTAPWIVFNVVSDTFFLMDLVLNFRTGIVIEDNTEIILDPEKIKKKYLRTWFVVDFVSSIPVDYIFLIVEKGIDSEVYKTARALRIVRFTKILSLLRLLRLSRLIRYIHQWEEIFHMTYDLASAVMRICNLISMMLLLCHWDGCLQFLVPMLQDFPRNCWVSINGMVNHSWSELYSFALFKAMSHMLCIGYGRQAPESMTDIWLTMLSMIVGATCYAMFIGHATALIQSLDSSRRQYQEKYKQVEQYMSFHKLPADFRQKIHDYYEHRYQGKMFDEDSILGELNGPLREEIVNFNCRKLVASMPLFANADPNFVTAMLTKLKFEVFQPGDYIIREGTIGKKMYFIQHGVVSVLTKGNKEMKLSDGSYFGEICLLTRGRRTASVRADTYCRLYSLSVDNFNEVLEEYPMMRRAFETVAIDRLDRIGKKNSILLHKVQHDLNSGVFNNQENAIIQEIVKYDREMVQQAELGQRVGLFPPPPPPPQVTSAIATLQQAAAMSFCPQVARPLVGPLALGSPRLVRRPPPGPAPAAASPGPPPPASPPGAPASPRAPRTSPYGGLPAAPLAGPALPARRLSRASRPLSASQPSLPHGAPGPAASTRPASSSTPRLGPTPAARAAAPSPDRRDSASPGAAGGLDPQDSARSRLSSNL
Source text: (§1) Solutions for recording HON currents were:
For HCN1 and HCN2, the pulse protocol involved stepping from a holding potential of −30 mV to −110 mV (see FIG. 1A) for 2 seconds to evoke the current. The membrane voltage was then stepped back to −30 mV for a further 8 seconds. This sequence was evoked repeatedly every 10 seconds throughout the experiment, starting prior to drug (Control A) and during cumulative additions of 5 increasing compound concentrations, then finally a 100% inhibiting concentration of cesium chloride (CsCl, 3 mM).
(§2) The peak inward current measured at the end of the pulse to −110 mV (HCN1 and HCN2) or −130 mV (HCN4) was measured and any leak current subtracted to calculate the HCN current. The HCN current amplitude was measured after each control or compound addition and normalized to the control amplitude (Control A).
(§3) All experiments were performed at room temperature (approximately 22° C.).
(§4) Each test compound concentration was applied to the cell for seven (7) minutes, at which point the next cumulative concentration was applied. 3 mM CsCl was applied to each cell for 2 minutes at the end of each experiment (Control B) to determine 100% inhibition level of the HCN current.

Black6 strain mice = test: Bradycardia testing, heart rate by MouseOx pulse oximeter (Example 58); format: in vivo; settings: awake Black6 mice
Description: Test compounds were administered i.p. to awake, behaving, Black6 strain mice together with a vehicle only control arm. Heart rate in the mice were measured with MouseOx pulse oximeter.
The compound of Example 2 was administered to awake, behaving, Black6 strain mice at doses ranging from 0.05 mg/kg to 2 mg/kg. The effect of the compound of Example 2 on heart beat is shown in FIG. 11 compared to ivabradine administered at a dose of 5 mg/kg i.p, and a vehicle control.

HCN4 = biological target: T2, HCN4 (Homo sapiens, UniProt Q9Y3Q4); test: HCN4 assay using PatchXpress 7000A (Example 50A); format: cell-based; settings: PatchXpress protocol (PX)
T2 sequence (Q9Y3Q4 1-1203): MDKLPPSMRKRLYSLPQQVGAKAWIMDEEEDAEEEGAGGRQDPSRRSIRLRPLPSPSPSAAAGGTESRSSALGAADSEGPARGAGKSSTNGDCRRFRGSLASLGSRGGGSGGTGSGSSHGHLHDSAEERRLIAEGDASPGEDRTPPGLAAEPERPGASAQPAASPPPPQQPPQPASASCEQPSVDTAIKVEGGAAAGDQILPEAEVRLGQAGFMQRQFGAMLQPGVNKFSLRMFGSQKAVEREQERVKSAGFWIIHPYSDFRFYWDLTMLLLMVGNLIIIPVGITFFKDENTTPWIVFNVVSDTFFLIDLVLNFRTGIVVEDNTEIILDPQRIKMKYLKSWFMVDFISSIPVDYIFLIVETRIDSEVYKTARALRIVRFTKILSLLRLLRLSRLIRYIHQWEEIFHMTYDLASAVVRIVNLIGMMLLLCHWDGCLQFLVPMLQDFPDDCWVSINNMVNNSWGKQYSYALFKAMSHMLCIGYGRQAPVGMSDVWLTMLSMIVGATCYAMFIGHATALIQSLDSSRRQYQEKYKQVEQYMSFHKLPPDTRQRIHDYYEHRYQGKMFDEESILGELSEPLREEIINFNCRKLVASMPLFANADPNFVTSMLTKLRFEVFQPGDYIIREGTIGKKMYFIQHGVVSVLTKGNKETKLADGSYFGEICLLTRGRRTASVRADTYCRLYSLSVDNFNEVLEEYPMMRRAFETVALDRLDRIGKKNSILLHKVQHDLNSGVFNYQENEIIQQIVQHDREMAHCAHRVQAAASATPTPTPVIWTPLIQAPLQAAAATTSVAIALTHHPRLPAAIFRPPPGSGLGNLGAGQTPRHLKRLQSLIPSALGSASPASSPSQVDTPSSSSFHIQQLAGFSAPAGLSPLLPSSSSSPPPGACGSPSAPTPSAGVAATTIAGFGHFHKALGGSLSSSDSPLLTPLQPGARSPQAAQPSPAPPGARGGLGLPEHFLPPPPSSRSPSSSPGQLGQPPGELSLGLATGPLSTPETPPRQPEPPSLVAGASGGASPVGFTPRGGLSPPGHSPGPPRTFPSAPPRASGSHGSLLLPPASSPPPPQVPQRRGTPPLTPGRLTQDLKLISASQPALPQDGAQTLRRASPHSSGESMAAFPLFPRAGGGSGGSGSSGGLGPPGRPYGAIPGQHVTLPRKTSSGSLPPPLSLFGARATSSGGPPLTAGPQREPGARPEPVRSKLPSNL
Description: as §1
For HCN4, the pulse protocol involved stepping from a holding potential of −30 mV to −130 mV (see FIG. 1B) for 4 seconds to evoke the current.
as §2, §3, §4

WT Black6 strain mice = test: Mouse neuropathic pain model (partial sciatic nerve ligation), von Frey filament (Example 57); format: in vivo; settings: day 5 after PSNL
Description: The compounds of Example 2 and Example 4 were tested in a mouse neuropathic pain model using WT Black6 strain mice. The model used was analogous to the model described in Seltzer Z, Dubner R, & Shir Y (1990), A novel behavioural model of neuropathic pain disorders produced in rats by partial sciatic nerve injury, Pain 43: 205-218). […] Sci Transl Med 9: eaam6072.
The test compounds were administered i.p. to the mice on day 5 following partial sciatic nerve ligation surgery, average data from 3-4 mice. The mechanical pain threshold was measured by manual von Frey filament applied to hind paw on the operated side, using the “up-down” method. The test compounds were compared to ivabradine at 5 mg/kg i.p. and i.p. injection of vehicle.

guinea pigs [1] = test: Tinnitus, noise-exposure model, GPIAS test (Example 54); format: in vivo
Source text: (§5) Tinnitus in guinea pigs was monitored using the gap induced inhibition of the acoustic startle (GPIAS) test (see FIG. 5). GPIAS is reduced when tinnitus was present; see Berger, J. I. et al. Effects of the cannabinoid CB1 agonist ACEA on salicylate ototoxicity, hyperacusis and tinnitus in guinea pigs. Hearing research, (2017), and Coomber, B. et al. Neural changes accompanying tinnitus following unilateral acoustic trauma in the guinea pig. Eur J Neurosci 40, 2427-2441, (2014).
(§6) In FIG. 5, sound stimulus (above) and corresponding pinna reflex (below) are shown in freely moving guinea pigs. Stimuli with no gap and gap are presented in a randomised order. Traces contaminated by movement (the upper trace in “no gap”) were removed before analysis.
The noise-exposure model is more clinically relevant than the salicylate model, as it parallels a common cause of tinnitus in humans. A second important point is that it is long-term, while tinnitus induced by salicylate is rapidly reversed following salicylate exposure.
GPIAS returns following drug wash-out (see bar D in FIG. 7).

Black6 mice = settings: mouse, in vivo, ip; cited from earlier work
guinea pigs [2] = test: Tinnitus, short-term salicylate model, GPIAS test (Example 54); format: in vivo; settings: salicylate 350 mg/kg i.p., 2 h, ivabradine 5 mg/kg s.c.
Source text: as §5, §6
Tinnitus was induced within 1-2 hours in humans by high doses of salicylate. A similar short-term tinnitus model was implemented in guinea pigs by i.p. injection of salicylate. In all animals, salicylate caused behavioural inhibition of GPIAS (see bar 2 in FIG. 6).
Salicylate (350 mg/kg, i.p.) impairs behavioural gap detection 2 h after salicylate administration (see bar 2 in of FIG. 6). Gap detection was restored by blocking HCN channels with ivabradine (5 mg/kg, s.c.).

adult mice = format: in vivo; settings: tone pulses 3 kHz to 42 kHz
[3] = Evaluation of CNS penetration: plasma, brain and auditory nerve levels (Example 55); format: in vivo; settings: other: injection, guinea pig, 30 min after injection, preliminary, n=2
Description: Ivabradine in guinea pig plasma, brain (somatosensory cortex) and auditory nerve were assayed at 30 min after injection, the time used in Example 130. Ratios of total concentrations in preliminary experiments for plasma:brain:auditory nerve were 1:0.12:0.57 (n=2). The small amount (12% of plasma level) detected in brain is largely accounted for by the presence of ivabradine within the vascular supply of the brain. As in other species, therefore, ivabradine is strongly excluded from guinea pig brain because of its hydrophilicity and Pgp substrate activity; see Young, G. T., Emery, E. C., Mooney, […]. […] Pain 155, 1708-1719, (2014).

SMILES | IC50 (HCN2) [nM] | selective for HCN2 over HCN4 (HCN2) | bradycardia (heart rate) (Black6 strain mice; 2 mg/kg i.p.) | IC50 (HCN4) [nM] | mechanical analgesia (von Frey pain threshold) (WT Black6 strain mice; 2 mg/kg i.p.) | mechanical analgesia (von Frey pain threshold) (WT Black6 strain mice; 10 mg/kg i.p.) | bradycardia (heart rate) (Black6 strain mice; 0.2 mg/kg i.p.) | mechanical analgesia (von Frey pain threshold) (WT Black6 strain mice; 0.2 mg/kg i.p.) | effect on reduced GPIAS following noise exposure (guinea pigs [1]; guinea pigs with impaired GPIAS after unilateral noise exposure, 5 mg/kg s.c.) | effect on GPIAS in control experiments (guinea pigs [1]; noise-exposed guinea pigs showing no behavioural evidence of tinnitus, n=3) | therapeutic window between analgesia and bradycardia (Black6 mice) | effect on GPIAS (behavioural gap detection) (guinea pigs [2]) | effect on ABR threshold or latency (adult mice) | Kp at 30 min ([3]; auditory nerve / plasma, read-out: ratio of total concentrations auditory nerve:plasma) | Kp at 0.5 h ([3]; brain (somatosensory cortex) / plasma, somatosensory cortex, read-out: ratio of total concentrations brain:plasma)
N[C@@H](Cc1ccccn1)c1ncccc1-n1ncc2ccccc21 [Example 4, (S)-1-[3-(1H-indazole-1-yl)pyridine-2-yl]-2-(pyridine-2-yl)ethan-1-amine hydrochloride] | 1600 | more than 19 times | minimal bradycardia | > 30000 | maximal analgesia | maximal analgesia |  |  |  |  |  |  |  |  | 
Cc1ccc(C#N)nc1C[C@H](N)c1ncccc1-n1ncc2ccccc21 [Example 2, (S)-6-{2-[3-(1H-indazol-1-yl)pyridine-2-yl]-2-aminoethyl}-5-methylpyridin-2-carbonitrile hydrochloride] | 30 | 21 times |  | 500 |  |  | minimal bradycardia | full analgesia |  |  |  |  |  |  | 
COc1cc2c(cc1OC)CC(=O)N(CCCN(C)C[C@H]1Cc3cc(OC)c(OC)cc31)CC2 [ivabradine] |  |  |  |  |  |  |  |  | rapidly and completely reversed | without effect on GPIAS | little therapeutic window | reversed GPIAS | no significant difference | 0.57 | 0.12
